Columns and labels:
Format in all cases: ADME, organism-based
Heart [1] = assay: Biodistribution in Wistar rat heart at 7 MBq, iv after 15 mins; conditions: in vivo, 0.25 h
Rattus norvegicus [2] = assay: Biodistribution in Wistar rat rest cortex at 7 MBq, iv after 120 mins; conditions: in vivo, 2 h
Lung [3] = assay: Biodistribution in Wistar rat lung at 7 MBq, iv after 120 mins; conditions: in vivo, 2 h
Cerebellum [4] = assay: Biodistribution in Wistar rat cerebellum at 7 MBq, iv after 45 mins; conditions: in vivo, 0.75 h
Kidney [5] = assay: Biodistribution in Wistar rat kidney at 7 MBq, iv after 45 mins; conditions: in vivo, 0.75 h
Nucleic Acid [6] = assay: Ratio of drug level in cerebellum to striatum in Wistar rat at 7 MBq, iv after 45 mins; conditions: in vivo, 0.75 h
Hippocampus [7] = assay: Biodistribution in Wistar rat hippocampus at 7 MBq, iv after 45 mins; conditions: in vivo, 0.75 h
Rattus norvegicus [8] = assay: Biodistribution in Wistar rat frontal cortex at 7 MBq, iv after 120 mins; conditions: in vivo, 2 h
Kidney [9] = assay: Biodistribution in Wistar rat kidney at 7 MBq, iv after 15 mins; conditions: in vivo, 0.25 h
Rattus norvegicus [10] = assay: Biodistribution in Wistar rat rest cortex at 7 MBq, iv after 45 mins; conditions: in vivo, 0.75 h
Striatum [11] = assay: Biodistribution in Wistar rat striatum at 7 MBq, iv after 15 mins; conditions: in vivo, 0.25 h
Liver [12] = assay: Biodistribution in Wistar rat liver at 7 MBq, iv after 120 mins; conditions: in vivo, 2 h
Lung [13] = assay: Biodistribution in Wistar rat lung at 7 MBq, iv after 15 mins; conditions: in vivo, 0.25 h
Blood [14] = assay: Biodistribution in Wistar rat blood at 7 MBq, iv after 45 mins; conditions: in vivo, 0.75 h
Blood [15] = assay: Biodistribution in Wistar rat blood at 7 MBq, iv after 120 mins; conditions: in vivo, 2 h
Cerebellum [16] = assay: Biodistribution in Wistar rat cerebellum at 7 MBq, iv after 120 mins; conditions: in vivo, 2 h
Liver [17] = assay: Biodistribution in Wistar rat liver at 7 MBq, iv after 15 mins; conditions: in vivo, 0.25 h
Rattus norvegicus [18] = assay: Biodistribution in Wistar rat frontal cortex at 7 MBq, iv after 45 mins; conditions: in vivo, 0.75 h
Occipital cortex [19] = assay: Biodistribution in Wistar rat occipital cortex at 7 MBq, iv after 15 mins; conditions: in vivo, 0.25 h
Heart [20] = assay: Biodistribution in Wistar rat heart at 7 MBq, iv after 120 mins; conditions: in vivo, 2 h
Liver [21] = assay: Biodistribution in Wistar rat liver at 7 MBq, iv after 45 mins; conditions: in vivo, 0.75 h
Occipital cortex [22] = assay: Biodistribution in Wistar rat occipital cortex at 7 MBq, iv after 45 mins; conditions: in vivo, 0.75 h
Blood [23] = assay: Biodistribution in Wistar rat blood at 7 MBq, iv after 15 mins; conditions: in vivo, 0.25 h
Cerebellum [24] = assay: Biodistribution in Wistar rat cerebellum at 7 MBq, iv after 15 mins; conditions: in vivo, 0.25 h
Thyroid gland [25] = assay: Biodistribution in Wistar rat thyroid assessed per organ at 7 MBq, iv after 15 mins; conditions: in vivo, 0.25 h
Thyroid gland [26] = assay: Biodistribution in Wistar rat thyroid assessed per organ at 7 MBq, iv after 120 mins; conditions: in vivo, 2 h
Nucleic Acid [27] = assay: Ratio of drug level in cerebellum to hippocampus in Wistar rat at 7 MBq, iv after 45 mins; conditions: in vivo, 0.75 h
Heart [28] = assay: Biodistribution in Wistar rat heart at 7 MBq, iv after 45 mins; conditions: in vivo, 0.75 h
Striatum [29] = assay: Biodistribution in Wistar rat striatum at 7 MBq, iv after 45 mins; conditions: in vivo, 0.75 h
Lung [30] = assay: Biodistribution in Wistar rat lung at 7 MBq, iv after 45 mins; conditions: in vivo, 0.75 h
Occipital cortex [31] = assay: Biodistribution in Wistar rat occipital cortex at 7 MBq, iv after 120 mins; conditions: in vivo, 2 h
Nucleic Acid [32] = assay: Ratio of drug level in cerebellum to occipital cortex in Wistar rat at 7 MBq, iv after 45 mins; conditions: in vivo, 0.75 h
Nucleic Acid [33] = assay: Ratio of drug level in cerebellum to frontal cortex in Wistar rat at 7 MBq, iv after 45 mins; conditions: in vivo, 0.75 h
Kidney [34] = assay: Biodistribution in Wistar rat kidney at 7 MBq, iv after 120 mins; conditions: in vivo, 2 h
Rattus norvegicus [35] = assay: Biodistribution in Wistar rat frontal cortex at 7 MBq, iv after 15 mins; conditions: in vivo, 0.25 h
Rattus norvegicus [36] = assay: Biodistribution in Wistar rat rest cortex at 7 MBq, iv after 15 mins; conditions: in vivo, 0.25 h
Hippocampus [37] = assay: Biodistribution in Wistar rat hippocampus at 7 MBq, iv after 15 mins; conditions: in vivo, 0.25 h
Striatum [38] = assay: Biodistribution in Wistar rat striatum at 7 MBq, iv after 120 mins; conditions: in vivo, 2 h
Hippocampus [39] = assay: Biodistribution in Wistar rat hippocampus at 7 MBq, iv after 120 mins; conditions: in vivo, 2 h

Drug uptake (Heart [1]): 0.22 % ID/g | Drug uptake (Rattus norvegicus [2]): 0.03 % ID/g | Drug uptake (Lung [3]): 0.19 % ID/g | Drug uptake (Cerebellum [4]): 0.08 % ID/g | Drug uptake (Kidney [5]): 5.47 % ID/g | Ratio (Nucleic Acid [6]): 0.93 | Drug uptake (Hippocampus [7]): 0.18 % ID/g | Drug uptake (Rattus norvegicus [8]): 0.04 % ID/g | Drug uptake (Kidney [9]): 5.54 % ID/g | Drug uptake (Rattus norvegicus [10]): 0.09 % ID/g | Drug uptake (Striatum [11]): 0.23 % ID/g | Drug uptake (Liver [12]): 1.97 % ID/g | Drug uptake (Lung [13]): 0.59 % ID/g | Drug uptake (Blood [14]): 0.2 % ID/g | Drug uptake (Blood [15]): 0.22 % ID/g | Drug uptake (Cerebellum [16]): 0.04 % ID/g | Drug uptake (Liver [17]): 2.38 % ID/g | Drug uptake (Rattus norvegicus [18]): 0.11 %ID | Drug uptake (Occipital cortex [19]): 0.37 % ID/g | Drug uptake (Heart [20]): 0.12 % ID/g | Drug uptake (Liver [21]): 2.08 % ID/g | Drug uptake (Occipital cortex [22]): 0.13 % ID/g | Drug uptake (Blood [23]): 0.18 % ID/g | Drug uptake (Cerebellum [24]): 0.25 % ID/g | Drug uptake (Thyroid gland [25]): 0.28 %ID | Drug uptake (Thyroid gland [26]): 0.25 %ID | Ratio (Nucleic Acid [27]): 2.38 | Drug uptake (Heart [28]): 0.14 % ID/g | Drug uptake (Striatum [29]): 0.07 % ID/g | Drug uptake (Lung [30]): 0.3 % ID/g | Drug uptake (Occipital cortex [31]): 0.04 % ID/g | Ratio (Nucleic Acid [32]): 1.73 | Ratio (Nucleic Acid [33]): 1.44 | Drug uptake (Kidney [34]): 3.12 % ID/g | Drug uptake (Rattus norvegicus [35]): 0.34 % ID/g | Drug uptake (Rattus norvegicus [36]): 0.28 % ID/g | Drug uptake (Hippocampus [37]): 0.44 % ID/g | Drug uptake (Striatum [38]): 0.03 % ID/g | Drug uptake (Hippocampus [39]): 0.05 % ID/g
Compound: O=C(N(CCN1CCN(c2ccccc2O)CC1)c1ccccn1)C12C3C4C1C1C2C3C41[123I] (centres undefined)

Reference: ChEMBL document CHEMBL1772973, “Design, synthesis, radiolabeling, and in vitro and in vivo evaluation of bridgehead iodinated analogues of N-{2-[4-(2-methoxyphenyl)piperazin-1-yl]ethyl}-N-(pyridin-2-yl)cyclohexanecarboxamide (WAY-100635) as potential SPECT ligands for the 5-HT1A receptor” (J Med Chem, 2011)
